# In US20250268878A1, “FERROPORTIN-INHIBITORS FOR THE USE IN THE TREATMENT OF MYELODYSPLASTIC SYNDROMES (MDS)” (Vifor (International) AG, priority 2021, published 2025):
# “Also recorded” adds a separate entry of the source.
# Experiments:
# [1] = test system: NUP98-HOXD13 MDS mice; experiment: NUP98-HOXD13 MDS mouse model, preventive effect (treatment from 3 months of age); type: in vivo; settings: for Immature Lin+ cKit+ cells in bone marrow: 3 months-long treatment; for Erythropoiesis / erythroid maturation in bone marrow and spleen: CD71 and CD44 loss on Ter119+ cells; for ROS formation in Ter119+ erythroid precursors: flow cytometry; for NTBI levels: serum, 0.5 mg/ml in drinking water
# Experimental: (§1) • The ferroportin inhibitor compound Fpn127 was tested in NUP98-HOXD13 MDS mice. Fpn127was administered in drinking water containing 1% glucose at the concentration of 0.5 mg/ml.
# • To study the protective effect of ferroportin inhibitors according to the invention on the progressive development of iron overload and related toxicities, overall 15 3-month-old MDS mice were treated with the Example Compound Fpn127 and compared to age-and sex-matched 15 untreated MDS mice and wild-type control (total of 3 repeated experiments). Mice were treated for 3 months-from 3 to 6 months of age. During the treatment period 2 untreated and 1 treated MDS mice were lost. • MDS mice of 3 months of age already show a certain degree of anemia, which supports to use the ferroportin inhibitors in the treatment starting from 3 months to improve erythropoiesis and anemia (FIG. 1). • About 60-70% of MDS mice show a mild to moderate anemia at 3 months of age. According to Hb levels, 3 month-old MDS mice can be divided into 3 groups presenting very mild, mild and moderate anemia (no/very mild anemia: Hb>13 g/dl; mild anemia: 10 g/dl<Hb<13 g/dl; moderate anemia: 8 g/dl<Hb<10 g/dl) (FIG. 2). Rarely MDS mice show severe anemia at 3 months age (severe anemia: Hb<8 g/dl). This reflects the situation of MDS patients whose 70-80% present anemia at diagnosis with different degree of severity. • In MDS mice treated for 3 months with Fpn127 from 3 to 6 months of age, the following parameters were monitored: • Serum iron levels and NTBI; • Liver iron accumulation; • Anemia and blood parameters; • Erythropoiesis—including RBC maturation, erythroid precursor apoptosis and ROS; • Hematopoietic stem cells—including apoptosis, ROS and DNA damage; • Bone marrow macrophages and myeloid-derived suppressor cells (not shown). • The FIGS. 3 to 15 show the results obtained as average of 3 independent experiments.
# • Similar as in the MDS mouse model described above, the kinetic effects of VIT-2763, administered into the drinking water (0.5 mg/ml) was investigated in NUP98-HOXD13 model of MDS.
# • To study the protective effect of the compound on the progressive development of iron overload and related toxicities, 3-month-old MDS mice were treated and compared to age-and sex-matched untreated MDS mice and wild-type control. Mice were treated with VIT-2763 from 3 months of age on to follow longitudinally blood parameters and survival (FIGS. 16-19), or for 3 months-from 3 to 6 months of age, for cellular and biochemical analyses (FIGS. 20-24).
# [2] = test system: mouse model of β-thalassemia; settings: cited from earlier work
# [3] = test system: NUP98-HOXD13 MDS mice; experiment: NUP98-HOXD13 MDS mouse model, rescuing effect (treatment from 5 months of age); type: in vivo; settings: for Leukemia development / Anemia after 5 months of treatment: additional results; for Leukemia development: WBC; for Anemia after 5 months of treatment: 10 months of age
# Experimental: as §1
# • To study the rescuing effect of the ferroportin inhibitors according to the invention on the established iron overload and related toxicities in MDS, overall 8 5-month-old MDS mice were treated with the Example Compound Fpn127 and compared to 8 age-and sex-matched MDS untreated mice and wild-type control (1 experiment). Mice were treated from 5 months of age onwards. During the treatment period 3 untreated and 3 treated MDS mice were lost. […] Other 2 mice died without the opportunity to monitor parameters. No molecular analysis of 5 month-old treated mice was obtained as this cohort was kept for further observing and monitoring. To better follow individual blood parameter modulation two cohorts of mice whose treatment has been started at 3 and 5 months of age respectively, are analyzed longitudinally once a month along the treatment.
# • To study the rescuing effect of the compound on the established iron overload and related toxicities in MDS, 5-month-old MDS mice were treated and compared to age-and sex-matched untreated MDS mice and wild-type controls. Mice were treated from 5 months of age onwards. […] The anemia of MDS mice tends to worsen from 5 months of age on.
# [4] = test system: NUP98-HOXD13 MDS mice; experiment: as above; type: in vivo; settings: over a total of 10
# [5] = test system: transfused guinea pigs; settings: cited from earlier work
# [6] = 3 to 6 months of age, listed as VIT
# [7] = 3 to 6 months of age, listed as VIT-2763
# [8] = Annexin V, MDS mice, 3 to 6 months of age
# [9] = MDS mice, 3 to 6 months of age, listed as Example Compound No. 127
# [10] = MDS mice, 0.5 mg/ml, 3 to 6 months of age
# [11] = MDS mice, 0.5 mg/ml, 3 to 6 months of age, listed as Example Compound No. 127
# [12] = bone marrow, MDS mice, 3 to 6 months of age
# [13] = treated from 3 months of age on, from 5 through 7 months of age
# [14] = treated from 5 months of age, listed as VIT
# [15] = treated from 5 months of age, listed as VIT-2763
smiles,measurement,setting,value
O=C(NCc1ncccc1F)c1coc(CCNCCc2nc3ccccc3[nH]2)n1 [Fpn127],Immature Lin+ cKit+ cells in bone marrow,[1]; [6],reduced
same,Immature Lin+ cKit+ cells in bone marrow,[1]; [7],reduces
same,Bone marrow CD11b+ myeloid cells (myeloid expansion),[1]; [6],reduced
same,IL-1β production by bone marrow macrophages,[1]; [6],reduced
same,Macrophage number in bone marrow,[1]; [6],improved macrophage number
same,Monocytic and granulocytic myeloid-derived suppressor cells (MDSCs) in bone marrow,[1]; [6],reduced
same,TNFα production by bone marrow macrophages,[1]; [6],reduced
same,Bone marrow CD11b+ myeloid cells (myeloid expansion),[1]; [7],reduces myeloid expansion
same,IL-1β production by bone marrow macrophages,[1]; [7],limits
same,Macrophage number in bone marrow,[1]; [7],improves macrophage number
same,Monocytic and granulocytic myeloid-derived suppressor cells (MDSCs) in bone marrow,[1]; [7],reduces myeloid expansion
same,TNFα production by bone marrow macrophages,[1]; [7],limits
same,Apoptosis in Ter119+ erythroid precursors,[1]; [8],decreasing; also recorded: reduced
same,Cell survival / apoptosis of LSK cells,[1]; [8],lower apoptosis
same,Apoptosis in Ter119+ erythroid precursors,"[1]; Annexin V, MDS mice, 3 to 6 months of age, listed as Example Compound No. 127",prevent their apoptosis
same,Erythropoiesis / erythroid maturation in bone marrow and spleen,"[1]; MDS mice, 3 to 6 months of age",improves bone marrow erythroid maturation; also recorded: improves splenic erythroid maturation; also recorded: significantly improved
same,Erythropoiesis / erythroid maturation in bone marrow and spleen,[1]; [9],improve ineffective erythropoiesis
same,Improvement of Hb levels,"[1]; MDS mice treated from 3 months of age, after 2, 3 and 4 months of treatment",about 2 g/dl
same,"Anemia, longitudinal monitoring",[1]; MDS mice treated with 0.5 mg/ml from 3 months of age,improves anemia
same,Serum iron levels,"[1]; MDS mice, 0.5 mg/ml in drinking water for 3 months, 3 to 6 months of age",reduces; also recorded: significantly decreased
same,Anemia,[1]; [10],Improved anemia; also recorded: ameliorates anemia
same,HCT,[1]; [10],significantly improved
same,Hb,[1]; [10],significantly improved
same,Kidney iron content,[1]; [10],significantly decreased
same,Liver iron content,[1]; [10],prevents iron loading; also recorded: significantly decreased
same,MCH,[1]; [10],remain unchanged
same,MCV,[1]; [10],remain unchanged
same,Platelet count,[1]; [10],remains unchanged
same,RBC,[1]; [10],significantly improved
same,Reticulocytes,[1]; [10],trend to improvement
same,Spleen iron,[1]; [10],further elevated
same,WBC count elevation / progression to leukemia,[1]; [10],trend in reducing progression to leukemia; also recorded: only one mouse show a trend to elevated WBC count
same,Anemia,[1]; [11],ameliorate anemia
same,Liver iron content,[1]; [11],prevent
same,Double strand breaks (γH2AX) in LSK cells,"[1]; MDS mice, 3 to 6 months of age",reduced double strand breaks
same,ROS production in LSK cells,"[1]; MDS mice, 3 to 6 months of age",decreased ROS production
same,Expression of CD71 on Ter119+ erythroid precursors,"[1]; bone marrow and spleen, MDS mice, 3 to 6 months of age",significant reduction
same,Overall status of hematopoietic LSK stem cells,[1]; [12],improves the overall status; also recorded: overall improvement
same,Pool of LSK cells,[1]; [12],likely preserved
same,ROS formation in Ter119+ erythroid precursors,"[1]; MDS mice, 3 to 6 months of age",decreasing; also recorded: reduced
same,ROS formation in Ter119+ erythroid precursors,[1]; [9],limit
same,Iron accumulation in LSK cells,"[1]; labile iron, MDS mice, 3 to 6 months of age",reduced iron accumulation
same,WBC increase in peripheral blood / leukemia evolution,"[1]; longitudinal, treated from 3 months of age, listed as VIT-2763",delays leukemia evolution; also recorded: not observed or delayed
same,NTBI levels,"[1]; MDS mice, 3 to 6 months of age",reduces; also recorded: significantly decreased
same,NTBI levels,[1]; [9],prevent NTBI formation
same,Survival (Kaplan-Meier),[1]; treated from 3 months of age,improves MDS mice survival
same,"HCT, longitudinal monitoring",[1]; [13],significantly improved
same,"Hb, longitudinal monitoring",[1]; [13],significantly improved
same,"RBC, longitudinal monitoring",[1]; [13],significantly improved
same,Anemia,[2],ameliorated anemia
same,Liver iron loading,[2],prevents liver iron loading
same,Ineffective erythropoiesis,[2]; oral,improves ineffective erythropoiesis
same,Leukemia development,[3]; [14],delayed leukemia development
same,Leukemia development,[3]; [15],delays leukemia evolution
same,Anemia after 5 months of treatment,[3]; [14],improved anemia was observed
same,Anemia after 5 months of treatment,[3]; [15],improves anemia
same,Median survival improvement compared to untreated mice,"[3]; older MDS mice, treated from 5 months of age",about 16 days
same,Hb of treated mice still alive at 15 months of age,[3]; stable blood parameters,about 9 g/dl
same,Survival (Kaplan-Meier),[3]; treated from 5 months of age,improves MDS mice survival
same,Anemia after 3 months of treatment,"[3]; treated from 5 months of age, 5 to 8 months of age",failed to observe improved anemia
same,Anemia in older MDS mice,"[3]; treated from 5 months of age, mice at 9 and 10 months of age, subset of mice",improves anemia; also recorded: partial improvement of anemia
same,Progression to leukemia / leukemia-related death,"[3]; treated from 5 months of age, mice that died",reduces leukemia-related death; also recorded: no apparent progression to leukemia
same,Life span reached by MDS mice benefiting from treatment,[3]; untreated all dying within 400 days,up to 600 days
same,Treated MDS mice still alive at 15 months of age,[4],two
O=C(NCc1ncccc1F)c1csc(CCNCc2nc3ccccc3[nH]2)n1 [VIT-2653],Hb levels following exchange transfusion,"[5]; guinea pigs, intravenous",significantly improved
same,NTBI levels following exchange transfusion,"[5]; guinea pigs, intravenous",significantly improved
same,Total iron in kidneys following transfusion,"[5]; guinea pigs, intravenous",can be reduced
same,Occurrence of changes in plasma creatinine >0.3 mg/dL (early acute kidney injury),[5]; transfused guinea pigs,significantly reduced
